Source: ChEMBL document CHEMBL1208720, “N-Benzylsalicylthioamides as novel compounds with promising antimycotic activity” (2010)
≈ marks a conversion by molar mass, not a printed value.

What was measured:
Format in all cases: functional
Candida albicans [1] = assay: Antifungal activity against Candida albicans ATCC 44859 after 48 hrs by broth microdilution assay; conditions: for MIC: Candida albicans, ATCC 44859, 48 h
Pichia kudriavzevii [2] = assay: Antifungal activity against Candida krusei E28 after 48 hrs by broth microdilution assay; conditions: for MIC: Pichia kudriavzevii, E28, 48 h
Trichosporon asahii [3] = assay: Antifungal activity against Trichosporon asahii 1188 after 48 hrs by broth microdilution assay; conditions: for MIC: Trichosporon asahii, 1188, 48 h
[4] = system: Trichophyton mentagrophytes; assay: Antifungal activity against Trichophyton mentagrophytes 445 after 120 hrs by broth microdilution assay; conditions: for MIC: Trichophyton mentagrophytes, 445, 120 h
Aspergillus fumigatus [5] = assay: Antifungal activity against Aspergillus fumigatus 231 after 24 hrs by broth microdilution assay; conditions: for MIC: Aspergillus fumigatus, 231, 24 h
Candida tropicalis [6] = assay: Antifungal activity against Candida tropicalis 159 after 48 hrs by broth microdilution assay; conditions: for MIC: Candida tropicalis, 159, 48 h
Candida tropicalis [7] = assay: Antifungal activity against Candida tropicalis 159 after 24 hrs by broth microdilution assay; conditions: for MIC: Candida tropicalis, 159, 24 h
Nakaseomyces glabratus [8] = assay: Antifungal activity against Candida glabrata 20/I after 48 hrs by broth microdilution assay; conditions: for MIC: Nakaseomyces glabratus, 20/I, 48 h
Candida albicans [9] = assay: Antifungal activity against Candida albicans ATCC 44859 after 24 hrs by broth microdilution assay; conditions: for MIC: Candida albicans, ATCC 44859, 24 h
Nakaseomyces glabratus [10] = assay: Antifungal activity against Candida glabrata 20/I after 24 hrs by broth microdilution assay; conditions: for MIC: Nakaseomyces glabratus, 20/I, 24 h
[11] = system: Trichophyton mentagrophytes; assay: Antifungal activity against Trichophyton mentagrophytes 445 after 72 hrs by broth microdilution assay; conditions: for MIC: Trichophyton mentagrophytes, 445, 72 h
Pichia kudriavzevii [12] = assay: Antifungal activity against Candida krusei E28 after 24 hrs by broth microdilution assay; conditions: for MIC: Pichia kudriavzevii, E28, 24 h
Trichosporon asahii [13] = assay: Antifungal activity against Trichosporon asahii 1188 after 24 hrs by broth microdilution assay; conditions: for MIC: Trichosporon asahii, 1188, 24 h
Lichtheimia corymbifera [14] = assay: Antifungal activity against Absidia corymbifera 272 after 48 hrs by broth microdilution assay; conditions: for MIC: Lichtheimia corymbifera, 272, 48 h
Aspergillus fumigatus [15] = assay: Antifungal activity against Aspergillus fumigatus 231 after 48 hrs by broth microdilution assay; conditions: for MIC: Aspergillus fumigatus, 231, 48 h
Lichtheimia corymbifera [16] = assay: Antifungal activity against Absidia corymbifera 272 after 24 hrs by broth microdilution assay; conditions: for MIC: Lichtheimia corymbifera, 272, 24 h

SMILES | MIC (Candida albicans [1]) [µM] | MIC (Pichia kudriavzevii [2]) [µM] | MIC (Trichosporon asahii [3]) [µM] | MIC [4] [µM] | MIC (Aspergillus fumigatus [5]) [µM] | MIC (Candida tropicalis [6]) [µM] | MIC (Candida tropicalis [7]) [µM] | MIC (Nakaseomyces glabratus [8]) [µM] | MIC (Candida albicans [9]) [µM] | MIC (Nakaseomyces glabratus [10]) [µM] | MIC [11] [µM] | MIC (Pichia kudriavzevii [12]) [µM] | MIC (Trichosporon asahii [13]) [µM] | MIC (Lichtheimia corymbifera [14]) [µM] | MIC (Aspergillus fumigatus [15]) [µM] | MIC (Lichtheimia corymbifera [16]) [µM] | further results
Oc1ccc(Cl)cc1C(=S)NCc1ccccc1 | 125 (≈ 34.7 µg/mL) | 31.2 (≈ 8.68 µg/mL) | 31.2 (≈ 8.68 µg/mL) | 3.9 (≈ 1.08 µg/mL) | 31.2 (≈ 8.68 µg/mL) | 125 (≈ 34.7 µg/mL) | 62.5 (≈ 17.4 µg/mL) | 62.5 (≈ 17.4 µg/mL) | 62.5 (≈ 17.4 µg/mL) | 15.6 (≈ 4.34 µg/mL) | 1.95 (≈ 0.542 µg/mL) | 15.6 (≈ 4.34 µg/mL) | 31.2 (≈ 8.68 µg/mL) | 15.6 (≈ 4.34 µg/mL) | 31.2 (≈ 8.68 µg/mL) | 15.6 (≈ 4.34 µg/mL) | –
Cc1ccc(CNC(=S)c2ccccc2O)cc1 | 125 (≈ 32.2 µg/mL) | 125 (≈ 32.2 µg/mL) | 62.5 (≈ 16.1 µg/mL) | 15.6 (≈ 4.02 µg/mL) | 125 (≈ 32.2 µg/mL) | 125 (≈ 32.2 µg/mL) | 125 (≈ 32.2 µg/mL) | 125 (≈ 32.2 µg/mL) | 62.5 (≈ 16.1 µg/mL) | 125 (≈ 32.2 µg/mL) | 31.2 (≈ 8.04 µg/mL) | 62.5 (≈ 16.1 µg/mL) | 31.2 (≈ 8.04 µg/mL) | 31.2 (≈ 8.04 µg/mL) | 250 (≈ 64.3 µg/mL) | 15.6 (≈ 4.02 µg/mL) | –
Oc1ccccc1C(=S)NCc1ccc(F)cc1 | 125 (≈ 32.7 µg/mL) | 125 (≈ 32.7 µg/mL) | 62.5 (≈ 16.3 µg/mL) | 31.2 (≈ 8.17 µg/mL) | 62.5 (≈ 16.3 µg/mL) | 250 (≈ 65.3 µg/mL) | 125 (≈ 32.7 µg/mL) | 250 (≈ 65.3 µg/mL) | 62.5 (≈ 16.3 µg/mL) | 125 (≈ 32.7 µg/mL) | 7.81 (≈ 2.04 µg/mL) | 62.5 (≈ 16.3 µg/mL) | 31.2 (≈ 8.17 µg/mL) | 31.2 (≈ 8.17 µg/mL) | 62.5 (≈ 16.3 µg/mL) | 15.6 (≈ 4.08 µg/mL) | –
Cc1cccc(CNC(=S)c2ccccc2O)c1 | 250 (≈ 64.3 µg/mL) | 250 (≈ 64.3 µg/mL) | 62.5 (≈ 16.1 µg/mL) | 15.6 (≈ 4.02 µg/mL) | 62.5 (≈ 16.1 µg/mL) | 250 (≈ 64.3 µg/mL) | 125 (≈ 32.2 µg/mL) | 250 (≈ 64.3 µg/mL) | 125 (≈ 32.2 µg/mL) | 125 (≈ 32.2 µg/mL) | 15.6 (≈ 4.02 µg/mL) | 125 (≈ 32.2 µg/mL) | 31.2 (≈ 8.04 µg/mL) | 15.6 (≈ 4.02 µg/mL) | 62.5 (≈ 16.1 µg/mL) | 62.5 (≈ 16.1 µg/mL) | –
Cc1ccc(C(=S)NCc2ccccc2)c(O)c1 | 125 (≈ 32.2 µg/mL) | 125 (≈ 32.2 µg/mL) | 62.5 (≈ 16.1 µg/mL) | 31.2 (≈ 8.04 µg/mL) | 62.5 (≈ 16.1 µg/mL) | 250 (≈ 64.3 µg/mL) | 125 (≈ 32.2 µg/mL) | 250 (≈ 64.3 µg/mL) | 62.5 (≈ 16.1 µg/mL) | 125 (≈ 32.2 µg/mL) | 31.2 (≈ 8.04 µg/mL) | 62.5 (≈ 16.1 µg/mL) | 62.5 (≈ 16.1 µg/mL) | 31.2 (≈ 8.04 µg/mL) | 125 (≈ 32.2 µg/mL) | 7.81 (≈ 2.01 µg/mL) | –
Cc1ccc(CNC(=S)c2ccc(C)cc2O)cc1 | 250 (≈ 67.8 µg/mL) | 125 (≈ 33.9 µg/mL) | 62.5 (≈ 17 µg/mL) | 15.6 (≈ 4.24 µg/mL) | 125 (≈ 33.9 µg/mL) | 500 (≈ 136 µg/mL) | 125 (≈ 33.9 µg/mL) | 500 (≈ 136 µg/mL) | 125 (≈ 33.9 µg/mL) | 125 (≈ 33.9 µg/mL) | 15.6 (≈ 4.24 µg/mL) | 62.5 (≈ 17 µg/mL) | 31.2 (≈ 8.48 µg/mL) | 31.2 (≈ 8.48 µg/mL) | 500 (≈ 136 µg/mL) | 7.81 (≈ 2.12 µg/mL) | –
COc1ccc(C(=S)NCc2ccccc2)c(O)c1 | 250 (≈ 68.3 µg/mL) | 250 (≈ 68.3 µg/mL) | 250 (≈ 68.3 µg/mL) | 62.5 (≈ 17.1 µg/mL) | 250 (≈ 68.3 µg/mL) | 250 (≈ 68.3 µg/mL) | 250 (≈ 68.3 µg/mL) | 500 (≈ 137 µg/mL) | 62.5 (≈ 17.1 µg/mL) | 500 (≈ 137 µg/mL) | 62.5 (≈ 17.1 µg/mL) | 250 (≈ 68.3 µg/mL) | 250 (≈ 68.3 µg/mL) | 250 (≈ 68.3 µg/mL) | 500 (≈ 137 µg/mL) | 62.5 (≈ 17.1 µg/mL) | –
COc1ccc(O)c(C(=S)NCc2ccccc2)c1 | – | – | – | – | – | – | – | – | – | – | – | – | – | – | – | – | logMIC (Candida albicans [1]): 2.4; logMIC (Pichia kudriavzevii [2]): 2.4; logMIC (Trichosporon asahii [3]): 2.4; logMIC [4]: 1.8; logMIC (Aspergillus fumigatus [5]): 2.4; logMIC (Candida tropicalis [6]): 2.4; logMIC (Candida tropicalis [7]): 2.4; logMIC (Nakaseomyces glabratus [8]): 2.4; logMIC (Candida albicans [9]): 2.1; logMIC (Nakaseomyces glabratus [10]): 2.4; logMIC [11]: 1.8; logMIC (Pichia kudriavzevii [12]): 2.4; logMIC (Trichosporon asahii [13]): 2.1; logMIC (Lichtheimia corymbifera [14]): 2.1; logMIC (Aspergillus fumigatus [15]): 2.4; logMIC (Lichtheimia corymbifera [16]): 1.49
